We go through 9 compounds from PubChem BioAssay AID2060621 (Molecular Pharmacology Branch, DTP, NCI, 2025).

The assay deals with 324938-238-R-J1-PDC complex spheroids viability. The experiment in a line: Anticancer human tumor 324938-238-R-J1-PDC patient-derived bladder carcinoma cell line growth inhibition [CLK]. To be noted: for viability, T/C: stronger effect = lower value; for IC50: curve of compound. The source says: A high-throughput screen of multi-cell type tumor spheroids was designed to identify active combinations of […] and targeted small molecules. Complex spheroids include a stromal component modeled by human endothelial cells (HUVEC) and fibroblasts modeled by human mesenchymal stem cells (MSCs). The concentration ranges selected for each drug and investigational agent were based upon clinically achievable concentrations if the clinical Cmax of the agent was known.
Compounds. The drugs and investigational agents: cirtuvivint (SM08502; NSC835563), CC-671 (NSC850746), vemurafenib (NSC761431), tapotoclax (NSC804041), sotorasib (NSC818433), adagrasib (NSC831453), MRTX-1133 (NSC836407), BAY2416964 (NSC825713), copanlisib (NSC816437), inavolisib (NSC800729), abemaciclib (NSC768073), osimertinib (NSC779217), entinostat (NSC756642), eltanexor (KPT-8602, NSC794443), venetoclax (NSC766270), ceralasertib (NSC777638), bortezomib (NSC756655), olaparib (NSC753686), talazoparib (NSC767125), alisertib (NSC759677), peposertib (NSC802822), gemcitabine (NSC613327), 5-fluorouracil (NSC19893), SN-38 (NSC673596), oxaliplatin (NSC266046), paclitaxel (NSC125973), and doxorubicin (NSC123127), were obtained from the National Cancer Institute (NCI) Developmental Therapeutics Program Chemical Repository. The FDA-approved anticancer drug set is available from the Developmental Therapeutics Program at https://dtp.cancer.gov/organization/dscb/obtaining/available plates.htm. […] The stock solutions were prepared in dimethyl sulfoxide (DMSO, Sigma-Aldrich, St. Louis, MO, cat. D2650), except for the platinum complexes which were prepared in saline (Quality Biological, Gaithersburg, MD, cat. 114-055-101), at 800-fold the tested concentration and stored at -70 degrees C prior to their use. All drugs and investigational agents were tested over a range starting from a high concentration at or near the clinical Cmax and decreasing in half-log increments. If the clinical Cmax for an agent had not been determined, the highest concentration tested was 10 microM.
Cell Culture. All cells were maintained in an incubator at 37 degrees C and 5% CO2 with 95% humidity. The PDC lines were cultured according to standard operating procedures established by the NCI PDMR. Briefly, all PDCs were thawed and cultured in Matrigel-coated flasks prepared with a working solution of 1X Ham's F-12 nutrient mix, without supplementation (Invitrogen, Waltham, MA, cat. 11765054), 100 U/mL penicillin-streptomycin (Invitrogen, cat. 15140122), and 2.5% Matrigel (Corning Inc., Corning, NY, cat. 354248) for the first three passages. The 947758-054-R-J2-PDC line was cultured in 6B/Colon 1A media, which includes advanced DMEM/F-12 (Thermo Fisher Scientific, cat. 12634028), 10 mM HEPES (Thermo Fisher Scientific, cat. 15630080), 1X GlutaMAX supplement (Thermo Fisher Scientific, cat. 35050061), 0.1 mg/mL primocin (InvivoGen, cat. ant-pm-2), 10% defined fetal bovine serum, heat inactivated (HyClone Laboratories Inc., cat. SH30070.03HI), 1.25 mM N-Acetyl-L-cysteine (Sigma-Aldrich, cat. A9165), 10 mM nicotinamide (Sigma-Aldrich, cat. N0636), 1X B-27 supplement (Thermo Fisher Scientific, cat. 17504044), 1X N-2 supplement (Thermo Fisher Scientific, cat. 17502048), and 10 microM Y-27632 dihydrochloride (Tocris Bioscience, cat. 1254). The 876862-298-R-J1-PDC was cultured in 6E media, which includes all 6B/Colon 1A media components plus 50% L-WRN conditioned media (ATCC, cat. CRL-3276), 50 ng/mL recombinant human EGF recombinant protein (hEGF; Thermo Fisher Scientific, cat. PHG0311), 10 ng/mL recombinant human fibroblast growth factor 10 (hGFG-10; PeproTech, cat. 100-26), 1 ng/mL recombinant human fibroblast growth factor 2 (hFGF-2; PeproTech, cat. 100-18B), and 1 µM prostaglandin E2 (PGE2; Tocris, cat. 2296). The 227483-062-R1-J1-PDC line was cultured in Panc media, containing all 6E components except hFGF-2, with the addition of 500 nM SB-431542 (Selleckchem, cat. S1067) and 10 nM gastrin (Tocris, cat. 3006). […]

The structures appear in SMILES notation. Where “and” joins values, the source holds several entries; their conditions need not be identical. Identical values can stand only once.
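Note: viability read after seven days of drug exposure.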
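Throughout, for viability, T/C: 100% = DMSO vehicle control wells.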

Usually viability, T/C stands for the result in the treated group divided by that in the control group, in per cent. Usually IC50 stands for the concentration needed to halve the response being measured. In the case of `CC(=O)O[C@H]1C(=O)[C@@]2(C)[C@H]([C@H](OC(=O)c3ccccc3)[C@]3(O)C[C@H](OC(=O)[C@H](O)[C@@H](NC(=O)c4ccccc4)c4ccccc4)C(C)=C1C3(C)C)[C@]1(OC(C)=O)CO[C@@H]1C[C@@H]2O`, the IC50 was below 31.6 nM. In addition, the viability, T/C (compound 0.0316 µM) is 12.8% and 11.6%. Also, the viability, T/C (compound 0.1 µM) was 12%. Also, the viability, T/C (compound 0.316 µM) was 11.3% and 13.4%. In addition, the viability, T/C (compound 1 µM) was 12.2% and 10.1%. In addition, under “compound 3.16 µM”, the viability, T/C was 13.7% and 12.3%. Further, the viability, T/C (compound 10 µM) is 15.3% and 14.2%.
Turning to `CC1(C)CCC(CN2CCN(c3ccc(C(=O)NS(=O)(=O)c4ccc(NCC5CCOCC5)c([N+](=O)[O-])c4)c(Oc4cnc5[nH]ccc5c4)c3)CC2)=C(c2ccc(Cl)cc2)C1`, the IC50 is 8810 nM and 4580 nM. Moreover, the viability, T/C (compound 0.0316 µM) is 85.9% and 77.8%. In addition, the viability, T/C (compound 0.1 µM) is 79.9% and 82.2%. Also, the viability, T/C (compound 0.316 µM) is 84.2% and 75.7%. Further, the viability, T/C (compound 1 µM) is 82% and 77.7%. Besides, the viability, T/C (compound 3.16 µM) was 77.1% and 68.8%. Also, the viability, T/C (compound 10 µM) is 46.6% and 10.4%.
`CC1COCCN1c1cc(C2(S(C)(=N)=O)CC2)nc(-c2ccnc3[nH]ccc23)n1` (stereo not drawn): the IC50 is 1780 nM and 1440 nM. In addition, for the setting “compound 0.0316 µM”, the viability, T/C is 85.2% and 72.7%. The viability, T/C (compound 0.1 µM) was 86.7% and 79%. The viability, T/C (compound 0.316 µM) was 73.1% and 77.7%. In addition, under “compound 1 µM”, the viability, T/C was 68.5% and 59.5%. Moreover, where the note is “compound 3.16 µM”, the viability, T/C is 33.5% and 27.7%. Further, the viability, T/C (compound 10 µM) was 14.9% and 13%.
For the compound `COc1ccc([C@@H](O)c2cc(-c3ncnc4cc(N5CCOCC5)ccc34)c(F)cc2Cl)nn1`, the IC50 is 3300 nM and 3510 nM. Further, the viability, T/C (compound 0.0316 µM) was 78% and 79.6%. Also, under “compound 0.1 µM”, the viability, T/C was 81% and 88.1%. Also, the viability, T/C (compound 0.316 µM) is 68.9% and 55.6%. Moreover, where the note is “compound 1 µM”, the viability, T/C is 59.9% and 71%. In addition, the viability, T/C (compound 3.16 µM) is 52.4% and 50.7%. Also, the viability, T/C (compound 10 µM) was 37.4% and 36.7%.
In the case of `COc1cccc2c1C(=O)c1c(O)c3c(c(O)c1C2=O)CC(O)(C(=O)CO)CC3OC1CC(N)C(O)C(C)O1` (stereo not drawn), the IC50 was below 31.6 nM. Besides, the viability, T/C (compound 0.0316 µM) is 18.6% and 20.6%. For the same compound, under “compound 0.1 µM”, the viability, T/C is 12.3% and 18%. The viability, T/C (compound 0.316 µM) was 7.21% and 8.55%. The viability, T/C (compound 1 µM) is 1.1% and 0.74%. For the same compound, the viability, T/C (compound 3.16 µM) was 0.07% and 0.13%. Moreover, the viability, T/C (compound 10 µM) is 0.18% and 0.15%.
With `Nc1ccccc1NC(=O)c1ccc(CNC(=O)OCc2cccnc2)cc1`, the IC50 was 1420 nM and 1290 nM. Besides, where the note is “compound 0.0316 µM”, the viability, T/C is 90% and 75.9%. In addition, the viability, T/C (compound 0.1 µM) is 89.8% and 91.8%. Where the note is “compound 0.316 µM”, the viability, T/C was 83.1% and 73.8%. For the same compound, the viability, T/C (compound 1 µM) was 58% and 50.5%. Moreover, the viability, T/C (compound 3.16 µM) was 29.4% and 33.5%. Moreover, the viability, T/C (compound 10 µM) was 9.64% and 5.66%.
`Nc1ccn(C2OC(CO)C(O)C2(F)F)c(=O)n1` (stereo not drawn): the IC50 is below 31.6 nM. Where the note is “compound 0.0316 µM”, the viability, T/C was 27.6% and 25.4%. Besides, the viability, T/C (compound 0.1 µM) is 12.5% and 15%. Also, the viability, T/C (compound 0.316 µM) is 10.8% and 12.3%. Moreover, the viability, T/C (compound 1 µM) was 10.8% and 13.3%. Also, the viability, T/C (compound 3.16 µM) is 8.49% and 10.3%. The viability, T/C (compound 10 µM) was 6.92% and 8.69%.
For `O=C(c1cc(Cc2n[nH]c(=O)c3ccccc23)ccc1F)N1CCN(C(=O)C2CC2)CC1`, the IC50 was 4350 nM and 4650 nM. Also, the viability, T/C (compound 0.0316 µM) was 73.8% and 84.1%. The viability, T/C (compound 0.1 µM) is 75.1% and 88.4%. Besides, for the setting “compound 0.316 µM”, the viability, T/C is 71.4% and 72.4%. Moreover, under “compound 1 µM”, the viability, T/C is 83.3% and 73.8%. Where the note is “compound 3.16 µM”, the viability, T/C was 57% and 60.5%. For the same compound, for the setting “compound 10 µM”, the viability, T/C was 31.8% and 31.7%.
On to `O=c1[nH]cc(F)c(=O)[nH]1`, for which the IC50 was 159 nM and 223 nM. Also, the viability, T/C (compound 0.0316 µM) is 83.8% and 80.7%. Besides, the viability, T/C (compound 0.1 µM) is 66.9% and 79.9%. Besides, the viability, T/C (compound 0.316 µM) is 24.9% and 37%. Besides, the viability, T/C (compound 1 µM) is 19.4% and 26%. In addition, for the setting “compound 3.16 µM”, the viability, T/C was 16.1% and 20.8%. The viability, T/C (compound 10 µM) is 16.1% and 20.9%.
